This note sets out measurements from paper PMC9080270 (RSC Advances, 2018).

This experiment deals with T1, adenosine A1 receptor (A1AR) (Homo sapiens, UniProt P30542).
T1 sequence (P30542 1-326): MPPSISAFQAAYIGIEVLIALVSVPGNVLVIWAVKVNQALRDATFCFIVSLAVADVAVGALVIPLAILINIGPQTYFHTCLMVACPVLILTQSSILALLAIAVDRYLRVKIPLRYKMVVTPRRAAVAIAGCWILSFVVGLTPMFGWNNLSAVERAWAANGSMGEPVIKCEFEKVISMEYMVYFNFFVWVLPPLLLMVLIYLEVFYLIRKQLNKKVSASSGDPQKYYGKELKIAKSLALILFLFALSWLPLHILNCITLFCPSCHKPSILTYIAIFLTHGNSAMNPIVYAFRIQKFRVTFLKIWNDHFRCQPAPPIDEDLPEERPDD
Briefly: NanoBRET saturation binding in HEK293 cells. The experiment is classed as cell-based.

Substance CA200645 displayed a dissociation constant (Kd) of 110 nM.
